Results taken from US10716869B2, “Radiolabeled macrocyclic EGFR inhibitor” (Oncodesign SA, priority 2016, dated 2020).

Key:
[1] = biological target: T1, NCI-H3255 tumor cell homogenates (activated EGFR) (Homo sapiens, UniProt P00533, L858R); experiment: binding competition on tumor cell homogenates
T1 construct: endogenous in cells; host or cells: NCI-H3255
Experimental: (§1) FIG. 1: Binding affinity constant of Compound (II) determined in competition experiments on NCI-H3255 (A) and NCI-H441 (B) cell line extracts. NCI-H3255 and NCI-H441 cell line extracts were incubated at room temperature for 90 min with Compound (II) (0.5-0.7 nM) and with increasing concentrations of Compound (IIa) (0.05 nM to 10 μM).
(§2) The binding affinity of Compound (I) and the number of binding sites were first evaluated on NCI-H3255 and NCI-H441 tumor cell homogenates (FIG. 1). […] The number of binding sites was of the same order of magnitude (6.1±0.5×10^9 sites/μg protein).

[2] = biological target: T2, NCI-H441 tumor cell homogenates (activated EGFR) (Homo sapiens, UniProt P00533); experiment: binding competition on tumor cell homogenates
T2 construct: endogenous in cells; host or cells: NCI-H441
T2 sequence (P00533 25-1210): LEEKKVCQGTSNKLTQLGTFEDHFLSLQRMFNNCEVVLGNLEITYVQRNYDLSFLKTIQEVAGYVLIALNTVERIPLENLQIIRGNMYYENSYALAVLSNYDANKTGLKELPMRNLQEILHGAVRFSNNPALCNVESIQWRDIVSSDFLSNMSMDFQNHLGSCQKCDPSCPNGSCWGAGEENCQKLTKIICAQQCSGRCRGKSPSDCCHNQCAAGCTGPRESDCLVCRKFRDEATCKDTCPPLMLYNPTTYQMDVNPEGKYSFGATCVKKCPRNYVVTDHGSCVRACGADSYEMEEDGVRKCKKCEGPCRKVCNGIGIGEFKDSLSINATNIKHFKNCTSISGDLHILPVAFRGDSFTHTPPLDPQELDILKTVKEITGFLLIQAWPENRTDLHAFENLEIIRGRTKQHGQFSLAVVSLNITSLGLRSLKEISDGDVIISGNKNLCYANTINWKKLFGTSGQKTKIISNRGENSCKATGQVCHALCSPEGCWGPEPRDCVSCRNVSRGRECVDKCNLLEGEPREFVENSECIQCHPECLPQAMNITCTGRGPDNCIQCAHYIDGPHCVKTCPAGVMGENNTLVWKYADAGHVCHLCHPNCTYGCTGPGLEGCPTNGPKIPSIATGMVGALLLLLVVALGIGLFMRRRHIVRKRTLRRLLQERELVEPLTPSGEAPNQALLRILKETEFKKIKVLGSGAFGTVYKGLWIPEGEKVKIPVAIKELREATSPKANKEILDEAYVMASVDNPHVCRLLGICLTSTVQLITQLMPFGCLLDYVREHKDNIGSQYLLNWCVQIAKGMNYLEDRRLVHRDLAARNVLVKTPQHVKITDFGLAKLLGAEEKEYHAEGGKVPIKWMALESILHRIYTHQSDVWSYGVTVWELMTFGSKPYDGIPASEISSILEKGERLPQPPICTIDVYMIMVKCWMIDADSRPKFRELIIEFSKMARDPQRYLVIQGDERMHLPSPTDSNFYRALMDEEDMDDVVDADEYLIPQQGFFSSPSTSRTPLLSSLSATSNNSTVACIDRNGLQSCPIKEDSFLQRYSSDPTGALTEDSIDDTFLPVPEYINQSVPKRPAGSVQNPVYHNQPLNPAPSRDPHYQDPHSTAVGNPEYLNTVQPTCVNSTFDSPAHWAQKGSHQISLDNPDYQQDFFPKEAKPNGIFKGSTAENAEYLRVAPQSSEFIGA
Experimental: as §1, §2

[3] = radiochemical stability in vehicle by HPLC; format: physicochemical; conditions: room temperature, vehicle physiologic serum/ethanol 87.5/12.5
Experimental: By this method, the final radiolabeled compound can be obtained with a radiochemical purity greater than 98% in 100-110 min with a yield that can reach 25% (decay corrected). It has been noticed that an uncompleted evaporation of the solvents used for the purification of [^18F]Fluoroethyltosylate hampers the second step and conducts to lower yields. Specific activity of productions was in the range of […]. The radiolabeled compound is stable in the conditions of formulation as radiochemical purity still greater than 95% 20 h after production with a storage at room temperature.
After radiosynthesis, the stability of the radiotracer was evaluated by HPLC both in its vehicle and in rat plasma. Compound (I) was formulated in physiologic serum/ethanol with the respective proportion 87.5/12.5 (v/v). A mixture of compounds (I) (i.e. radiolabelled) and (Ia) (i.e. cold analogue) was stable for up to 20 hours at room temperature in its vehicle, only one peak being detected at the expected retention time. In rat plasma two peaks were detected: one at 3.15 minutes and one at 8.02 minutes (corresponding to a mixture of compounds (I) and (Ia)) after an incubation at +37° C. for 4 hours.

NCI-H441 tumors = experiment: tumor uptake in xenograft-bearing Nude rats; format: in vivo; conditions: NCI-H441, at 180 min
Experimental: (§3) Dynamic PET scan imaging and ex vivo gamma counting were performed on three cancer xenografts (NCI-H441, NCI-H3255, NCI-H1975) in Nude rats. Xenografts were initiated in athymic, Hsd:RH-Foxnlrnu rats (Harlan, The Netherlands) by subcutaneous injection of 2×10^7 cells in 200 μL RPMI 1640 in the left and right flanks. NCI-H3255 tumor cells were injected in the right flank and NCI-H441 or NCI-H1975 in the left flank. Each study consisted in two experiments on 18 or 19 rats, for a total of 113 rats. Injection of NCI-H3255 cells was performed on DO, 24 to 72 hours after a whole-body irradiation with a […] (5 Gy, ^60Co, BioMep SARL, Bretenières, France). […] Tumors were grown until a target volume of 500-1500 mm^3 for both tumors was reached, whenever possible. All procedures using animals were approved by the Animal Care and Use Committee of Oncodesign (CNREEA agreement No 91).
(§4) The radiotracer solution was diluted in NaCl 0.9% to prepare a solution of activity 4-6 MBq (gamma-counting experiments) or 25-35 MBq (PET imaging experiments) in a volume of 300-400 or 600-800 μL, respectively. The radioactivity in the syringe was measured before and after tracer injection to determine the injected dose (ID) to animals. Rats were anesthetized with inhaled isoflurane (2% in air) for compound injection and throughout the course of image acquisition. After compound injection, rats were allowed to wake up and put back in their cage for an uptake period ranging from 20 to 120 minutes depending on the experiment.
(§5) For ex vivo gamma counting, after the determined uptake period or after imaging, rats were euthanized by decapitation, and the following organs were harvested and weighed: tumor, kidneys, blood, liver, heart, tail, thigh muscle, lungs, spleen and skin. Tracer distribution was assessed by determining ^18F content in each tissue with a gamma-well counter (PerkinElmer 2480 Wizard2 3). Counting data are reported as % ID per gram of tissue (% ID/g). Once radioactivity in organs was measured, some samples were prepared for immunohistochemistry.
(§6) For imaging experiments, rats were positioned prone in a dedicated rat imaging chamber (Minerve, France). Their body temperature was maintained by a flow of warm air through the structure of the imaging bed. PET imaging was performed on a microPET eXplore Vista CT (General Electric Healthcare) system. The Vista system, equipped with 36 dual-layer LYSO/GSO phoswich detector modules, has an effective axial/transaxial field of view of 4.8/6.7 cm. The spatial resolution is <2 mm in all directions and in the whole field of view. The sensitivity is above 2.5% in the whole field of view. After a scout image to adjust the position of the field of view, a CT scan was acquired (140 μA, 40 kV). […]

NCI-H1975 tumors = experiment: tumor uptake in xenograft-bearing Nude rats; format: in vivo; conditions: NCI-H1975, at 180 min
Experimental: as §3, §4, §5, §6

NCI-H3255 tumors = experiment: tumor uptake in xenograft-bearing Nude rats; format: in vivo
Experimental: as §3, §4, §5, §6

[4] = test system: human lung tumors (wild type EGFR, L858R mutated or exon 19 deleted EGFR); experiment: autoradiography on human frozen tumor sections
Excerpt: Three types of human lung tumors were included: tumors harboring wild type EGFR and tumors carrying L858R mutated or exon 19 deleted EGFR genes.

[5] = read-out: binding affinity (Kd)

T1 sequence (P00533 25-1210 L858R): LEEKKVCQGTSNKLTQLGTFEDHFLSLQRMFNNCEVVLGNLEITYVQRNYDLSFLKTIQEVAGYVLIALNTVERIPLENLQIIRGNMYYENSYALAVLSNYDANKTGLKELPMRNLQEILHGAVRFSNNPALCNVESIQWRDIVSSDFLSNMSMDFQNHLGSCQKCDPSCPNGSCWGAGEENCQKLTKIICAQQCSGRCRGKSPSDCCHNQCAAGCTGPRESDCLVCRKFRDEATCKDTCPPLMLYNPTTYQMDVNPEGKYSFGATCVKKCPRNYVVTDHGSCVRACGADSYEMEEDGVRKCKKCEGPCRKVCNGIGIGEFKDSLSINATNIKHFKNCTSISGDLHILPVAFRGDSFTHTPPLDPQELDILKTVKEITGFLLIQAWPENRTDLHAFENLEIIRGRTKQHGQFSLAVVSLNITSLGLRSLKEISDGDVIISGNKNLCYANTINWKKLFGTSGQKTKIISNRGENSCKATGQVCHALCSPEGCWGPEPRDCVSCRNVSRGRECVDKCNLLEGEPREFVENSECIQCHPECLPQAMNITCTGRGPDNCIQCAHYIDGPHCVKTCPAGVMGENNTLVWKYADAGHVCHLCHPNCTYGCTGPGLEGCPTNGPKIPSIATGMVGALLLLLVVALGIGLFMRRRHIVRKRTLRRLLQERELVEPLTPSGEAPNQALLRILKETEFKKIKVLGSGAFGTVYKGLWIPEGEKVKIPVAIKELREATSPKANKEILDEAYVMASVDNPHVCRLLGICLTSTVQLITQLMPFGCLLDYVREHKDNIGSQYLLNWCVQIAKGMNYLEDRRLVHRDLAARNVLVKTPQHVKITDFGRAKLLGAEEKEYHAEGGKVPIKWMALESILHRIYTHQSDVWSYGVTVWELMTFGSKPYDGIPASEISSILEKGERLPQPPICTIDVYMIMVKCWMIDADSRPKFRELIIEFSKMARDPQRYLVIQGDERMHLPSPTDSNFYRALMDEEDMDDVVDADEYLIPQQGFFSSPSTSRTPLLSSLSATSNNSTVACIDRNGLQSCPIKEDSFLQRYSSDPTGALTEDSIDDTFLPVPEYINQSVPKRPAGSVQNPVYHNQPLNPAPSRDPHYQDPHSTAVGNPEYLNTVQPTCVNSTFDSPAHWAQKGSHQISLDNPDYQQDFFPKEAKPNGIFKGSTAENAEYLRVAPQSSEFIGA

Question: With `CC(C)C1NC(=O)Cc2ccc(Cl)cc2Nc2ncnc3cc(OCC[18F])c(cc23)OCCCNC1=O` (stereo not shown) [Compound (I)] as the compound, how does the “number of binding sites” value [1] read?
Answer: 9.1±3.1×10^9 sites/μg protein

Question: And the Kd [1, 5]?
Answer: 23.8 ± 9 nM

Question: What about the “number of binding sites” value [2] of the same compound?
Answer: 6.1±0.5×10^9 sites/μg protein

Question: And the Kd [2, 5]?
Answer: 25.8 ± 11.1 nM

Question: And the Radiochemical stability [3]?
Answer: >20 h

Question: And the “normalized uptake (tumor over muscle)” value (NCI-H441 tumors)?
Answer: 2.6

Question: What about the “normalized uptake (tumor over muscle)” value (NCI-H1975 tumors) of the same compound?
Answer: 3.6

Question: What about the “normalized uptake (tumor over muscle)” value (NCI-H3255 tumors; NCI-H3255, at 180 min) of the same compound?
Answer: 12

Question: And the “uptake in NCI-H3255 tumors” value (NCI-H3255 tumors; stable between 90 min and 180 min)?
Answer: around 0.2 % ID/g

Question: And the “specific binding on frozen tumor sections” value [4]?
Answer: specific binding of Compound (I) was observed on all tumor types
